Molecules are shown by their SMILES.

Chain of PIK3CD (Human) (O00329 whole entry, looked up): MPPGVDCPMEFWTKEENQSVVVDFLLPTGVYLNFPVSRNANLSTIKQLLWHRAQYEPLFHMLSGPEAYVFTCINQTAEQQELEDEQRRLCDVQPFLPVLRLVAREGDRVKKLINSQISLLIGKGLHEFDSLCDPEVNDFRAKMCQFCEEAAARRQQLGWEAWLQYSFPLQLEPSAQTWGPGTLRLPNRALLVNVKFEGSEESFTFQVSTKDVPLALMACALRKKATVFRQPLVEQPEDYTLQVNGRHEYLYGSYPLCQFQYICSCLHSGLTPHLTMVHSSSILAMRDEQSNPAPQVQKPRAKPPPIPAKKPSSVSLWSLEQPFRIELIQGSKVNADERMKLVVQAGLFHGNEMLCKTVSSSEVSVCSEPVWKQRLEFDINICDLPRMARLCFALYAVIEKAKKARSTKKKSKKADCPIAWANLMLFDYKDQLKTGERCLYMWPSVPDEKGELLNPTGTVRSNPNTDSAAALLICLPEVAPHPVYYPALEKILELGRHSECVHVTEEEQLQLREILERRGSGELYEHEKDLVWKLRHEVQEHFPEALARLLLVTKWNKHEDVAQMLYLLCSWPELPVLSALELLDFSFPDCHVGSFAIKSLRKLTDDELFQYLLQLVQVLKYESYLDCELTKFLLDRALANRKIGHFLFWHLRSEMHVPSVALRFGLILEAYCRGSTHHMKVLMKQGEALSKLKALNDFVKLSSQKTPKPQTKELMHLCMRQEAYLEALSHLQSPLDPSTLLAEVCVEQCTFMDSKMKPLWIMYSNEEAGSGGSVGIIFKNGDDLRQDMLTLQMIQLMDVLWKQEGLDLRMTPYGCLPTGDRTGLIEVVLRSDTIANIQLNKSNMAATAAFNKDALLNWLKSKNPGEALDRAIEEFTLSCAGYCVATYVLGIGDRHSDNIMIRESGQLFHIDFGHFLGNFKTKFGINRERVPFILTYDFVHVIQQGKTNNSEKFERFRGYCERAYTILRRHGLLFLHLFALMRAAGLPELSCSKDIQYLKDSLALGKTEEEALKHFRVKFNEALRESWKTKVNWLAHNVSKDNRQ

The assay has as its target PIK3CD (Human) (UniProt O00329). In words: Assessment of PIK3CD Kinase Activity (Scintillation Proximity Assay).
On to `CCOc1c(C(C)n2nc(C)c3c(N)ncnc32)cc(Cl)c(C#N)c1C1CN(CCO)C1` (centres undefined), for which the half-inhibitory concentration (IC50) is at most 10 nM.
The same measure for `CCOc1c(C(C)n2nc(C)c3c(N)ncnc32)cc(Cl)c(C)c1C1CN(C(=O)[C@@H](C)O)C1` (some centres undefined): at most 10 nM; for `CCOc1c(C(C)n2nc(C)c3c(N)ncnc32)cc(Cl)c(C#N)c1C1CN(C(=O)OC(C)C)C1` (centres undefined): at most 10 nM; for `CCNC(=O)c1c(C)c(Cl)cc(C(C)n2nc(-c3cc(O)cc(F)c3)c3c(N)ncnc32)c1OCC` (centres undefined): at most 10 nM.
The compound `CCOc1c(C(C)n2nc(C)c3c(N)ncnc32)cc(Cl)c(C#N)c1C1CN(C2CCOCC2)C1` (centres undefined) displayed an IC50 of at most 10 nM.
The same measure for `COc1c(C(C)n2nc(C)c3c(N)ncnc32)cc(Cl)c(C#N)c1C1CN(S(C)(=O)=O)C1` (centres undefined): at most 10 nM; for `CCOc1c(C(C)n2nc(C)c3c(N)ncnc32)cc(Cl)c(C#N)c1C1CN(C(C)CO)C1` (centres undefined): at most 10 nM.
In the case of `CCOc1c(C(C)n2nc(C)c3c(N)ncnc32)cc(Cl)c(F)c1C1CN(CC(F)F)C1` (centres undefined), the IC50 is at most 10 nM.
For `CCC(=O)N1CC(c2c(C)c(Cl)cc(C(C)n3nc(C)c4c(N)ncnc43)c2OC)C1` (centres undefined) the value was at most 10 nM.
For `COc1c(C(C)n2nc(C)c3c(N)ncnc32)cc(Cl)c(C#N)c1-c1cncc(S(C)(=O)=O)c1` (centres undefined) the value was at most 10 nM; for `COc1c(C(C)n2nc(C(F)F)c3c(N)ncnc32)cc(C#N)c(F)c1C1CN(CCO)C1` (centres undefined), at most 10 nM.
The same measure for `COc1c(C(C)n2cc(C)c3c(N)ncnc32)cc(Cl)c(C)c1-c1ccc(C(=O)N(C)C)nc1` (centres undefined): at most 10 nM; for `COc1c(C(C)n2nc(C)c3c(N)ncnc32)cc(Cl)c(C)c1-c1ccnc(C(=O)N(C)CCO)c1` (centres undefined): at most 10 nM; for `COc1c(C(C)n2nc(C)c3c(N)ncnc32)cc(Cl)c(C)c1C1CN(C(C)=O)C1` (centres undefined): at most 10 nM.
The compound `COc1c(C(C)n2nc(C)c3c(N)ncnc32)cc(Cl)c(C)c1-c1cncc(C(=O)N(C)C2CC2)c1` (centres undefined) showed an IC50 of at most 10 nM.
For `COc1c(C(C)n2nc(C(F)F)c3c(N)ncnc32)cc(C#N)c(F)c1C1CN(C[C@H](C)O)C1` (some centres undefined) the value was at most 10 nM; for `CCOc1c(C(C)n2nc(C)c3c(N)ncnc32)cc(Cl)c(C#N)c1C1CNC(=O)O1` (centres undefined), at most 10 nM; for `COc1c(C(C)n2nc(C)c3c(N)ncnc32)cc(Cl)c(C)c1-c1cnc(N)nc1` (centres undefined), at most 10 nM.
For `COc1c(C(C)n2nc(C)c3c(N)ncnc32)cc(Cl)c(F)c1C1CN(C[C@H](C)O)C1` (some centres undefined) the value was at most 10 nM.
The same measure for `COc1c(C(C)n2nc(C)c3c(N)ncnc32)cc(Cl)c(C#N)c1C1CN(C2CCOCC2)C1` (centres undefined): at most 10 nM; for `CCOc1c(C(C)n2nc(C)c3c(N)ncnc32)cc(Cl)c(C)c1-c1cnn(CC(N)=O)c1` (centres undefined): at most 10 nM.
The compound `CCNC(=O)c1c(C)c(Cl)cc(C(C)n2nc(-c3ccc4cn[nH]c4c3)c3c(N)ncnc32)c1OCC` (centres undefined) registered an IC50 of at most 10 nM.
The same measure for `COc1c(C(C)n2ccc(=O)c3c(N)ncnc32)cc(Cl)c(C)c1-c1cncc(C#N)c1` (centres undefined): at most 10 nM; for `CCOc1c(C(C)n2nc(C)c3c(N)ncnc32)cc(Cl)c(C#N)c1-c1ccc(C2=[N+][N+]=C(C)O2)nc1` (centres undefined): at most 10 nM.
Turning to `COc1c(C(C)n2nc(C)c3c(N)ncnc32)cc(Cl)c(C#N)c1C1CN(C(N)=O)C1` (centres undefined), the half-maximal inhibitory concentration (IC50) was at most 10 nM.
The same measure for `CCNC(=O)c1c(C)c(Cl)cc(C(C)n2nc(-c3cnc4[nH]ccc4c3)c3c(N)ncnc32)c1OCC` (centres undefined): at most 10 nM; for `CCOc1c(C(C)n2nc(C)c3c(N)ncnc32)cc(Cl)c(C#N)c1C1CN(C)C1` (centres undefined): at most 10 nM.
For the compound `COc1c(C(C)n2nc(C)c3c(N)ncnc32)cc(Cl)c(C)c1C1CC1` (centres undefined), the IC50 lay in the range of 10 to 50 nM.
For `CCOc1c(C(C)n2nc(C)c3c(N)ncnc32)cc(Cl)c(C#N)c1C1CN(C(COC)COC)C1` (centres undefined) the value was at most 10 nM.
In the case of `CNC(=O)c1cc(-c2c(C)c(Cl)cc(C(C)n3nc(C)c4c(N)ncnc43)c2OC)ccn1` (centres undefined), the IC50 is at most 10 nM.
The same measure for `COc1c(C(C)n2nc(C(F)F)c3c(N)ncnc32)cc(C#N)c(C)c1C1CN(C(C)=O)C1` (centres undefined): at most 10 nM; for `COc1c(C(C)n2nc(C)c3c(N)ncnc32)cc(Cl)c(Cl)c1C1CN(CC(C)(C)O)C1` (centres undefined): at most 10 nM; for `COc1c(C(C)n2nc(C(F)F)c3c(N)ncnc32)cc(C#N)c(C)c1C1CN(C[C@@H](C)O)C1` (some centres undefined): at most 10 nM.
The same measure for `CCOc1c(C(C)n2nc(-c3cc[nH]n3)c3c(N)ncnc32)cc(Cl)c(C)c1-c1ccc(C(=O)N(C)C)nc1` (centres undefined): at most 10 nM; for `COc1c(C(C)n2ccc(=O)c3c(N)ncnc32)cc(Cl)c(C)c1-c1cccc(S(=O)(=O)N(C)C)c1` (centres undefined): at most 10 nM; for `CCOc1c(C(C)n2nc(C(F)F)c3c(N)ncnc32)cc(Cl)c(F)c1C1CN(C)C1` (centres undefined): at most 10 nM.
`COc1c(C(C)n2nc(C)c3c(N)ncnc32)cc(Cl)c(C)c1CCC(=O)N(C)C` (centres undefined) gave a concentration for half-maximal inhibition (IC50) of at most 10 nM.
The same measure for `COc1c(C(C)n2nc(C)c3c(N)ncnc32)cc(Cl)c(C)c1C1CN(CCO)C1` (centres undefined): at most 10 nM; for `CCOc1c(C(C)n2nc(C)c3c(N)ncnc32)cc(Cl)c(C#N)c1C1CN(C(=O)NC(C)(C)C)C1` (centres undefined): at most 10 nM.
For `COc1c(C(C)n2nc(C)c3c(N)ncnc32)cc(Cl)c(C#N)c1C1CN(C[C@@H](C)O)C1` (some centres undefined), the IC50 was at most 10 nM.
`CCOc1c(C(C)n2cc(C)c3c(N)ncnc32)cc(Cl)c(C#N)c1C1CN(C[C@H](C)O)C1` (some centres undefined): the IC50 is at most 10 nM.
The same measure for `COc1c(C(C)n2nc(C)c3c(N)ncnc32)cc(Cl)c(C#N)c1C1CN(S(=O)(=O)C2CC2)C1` (centres undefined): at most 10 nM.
For `COc1c(C(C)n2nc(C)c3c(N)ncnc32)cc(C)c(C#N)c1C1CN(CC(C)(C)O)C1` (centres undefined) the value was at most 10 nM; for `CCOc1c(C(C)n2nc(C)c3c(N)ncnc32)cc(Cl)c(C)c1C1CNC(=O)C1` (centres undefined), at most 10 nM.
For `COc1c(C(C)n2nc(C)c3c(N)ncnc32)cc(Cl)c(Cl)c1C1CN(C(C)=O)C1` (centres undefined) the value was at most 10 nM; for `CCOc1c(C(C)n2nc(C)c3c(N)ncnc32)cc(Cl)c(C#N)c1C1CN(CC2CCOC2)C1` (centres undefined), at most 10 nM.
On to `CCOc1c(C(C)n2nc(C(F)F)c3c(N)ncnc32)cc(Cl)c(F)c1C1CN(C[C@H](C)O)C1` (some centres undefined), for which the IC50 was at most 10 nM.
The same measure for `COc1c(C(C)n2nc(C)c3c(N)ncnc32)cc(Cl)c(C)c1C1CN(C(=O)C2(O)CC2)C1` (centres undefined): at most 10 nM; for `COc1c(C(C)n2nc(C)c3c(N)ncnc32)cc(Cl)c(C)c1C1CNC(=O)O1` (centres undefined): at most 10 nM.
The same measure for `Cc1c(Cl)cc(C(C)n2nc(C)c3c(N)ncnc32)c(OCC2CC2)c1-c1ccc(C(=O)N(C)C)nc1` (centres undefined): at most 10 nM; for `CCOc1c(C(C)n2nc(C)c3c(N)ncnc32)cc(Cl)c(C#N)c1-c1cncc(C(=O)N(C)C)c1` (centres undefined): at most 10 nM.
For `COc1c(C(C)n2nc(C)c3c(N)ncnc32)cc(Cl)c(C#N)c1C1CN(C(C)=O)C1` (centres undefined) the value was at most 10 nM.
Take `CCOc1c(C(C)n2cc(C)c3c(N)ncnc32)cc(Cl)c(C#N)c1C1CN(CCO)C1` (centres undefined): the half-inhibitory concentration (IC50) is at most 10 nM.
The same measure for `COc1c(C(C)n2nc(C)c3c(N)ncnc32)cc(Cl)c(C)c1C1CN(C(=O)C2CC2)C1` (centres undefined): at most 10 nM; for `CCOc1c(C(C)n2nc(C)c3c(N)ncnc32)cc(C)c(C#N)c1C1CN(C(C)C)C1` (centres undefined): at most 10 nM.
The same measure for `CCOc1c(C(C)n2nc(C)c3c(N)ncnc32)cc(Cl)c(C#N)c1-c1cncc(C#N)c1` (centres undefined): at most 10 nM; for `CCOc1c(C(C)n2nc(C(F)F)c3c(N)ncnc32)cc(Cl)c(F)c1C1CN(CCO)C1` (centres undefined): at most 10 nM; for `COc1c(C(C)n2nc(C)c3c(N)ncnc32)cc(Cl)c(C)c1C1CN(C(=O)[C@H](C)O)C1` (some centres undefined): at most 10 nM.
The same measure for `CCOc1c(C(C)n2nc(C)c3c(N)ncnc32)cc(C)c(C#N)c1N1CCCC1` (centres undefined): at most 10 nM; for `CCOc1c(C(C)n2nc(C)c3c(N)ncnc32)cc(Cl)c(C)c1C1CN(C(C)C)C1` (centres undefined): at most 10 nM; for `COc1c(C(C)n2nc(C)c3c(N)ncnc32)cc(Cl)c(C)c1-c1ccc(C(=O)N(C)C)nc1` (centres undefined): at most 10 nM.
The compound `CCOc1c(C(C)n2nc(-c3cccc(F)c3)c3c(N)ncnc32)cc(Cl)c(C)c1-c1ccc(C(=O)N(C)C)nc1` (centres undefined) showed a 50% inhibitory concentration (IC50) of at most 10 nM.
Take `COc1c(C(C)n2ncc3c(N)ncnc32)cc(Cl)c(C)c1-c1ccnc(C(=O)N(C)C)c1` (centres undefined): the concentration for half-maximal inhibition (IC50) fell in the range of 10 to 50 nM.
For `COCCN1CC(c2c(C)c(Cl)cc(C(C)n3nc(C)c4c(N)ncnc43)c2OC)C1` (centres undefined) the value was at most 10 nM; for `CCOc1c(C(C)n2nc(-c3cnc(N)nc3)c3c(N)ncnc32)cc(Cl)c(C)c1-c1ccc(C(=O)N(C)C)nc1` (centres undefined), at most 10 nM.
As to `CCOc1c(C(C)n2nc(C)c3c(N)ncnc32)cc(Cl)c(C)c1C1CN(C[C@H](C)O)C1` (some centres undefined), the IC50 was at most 10 nM.
For `CCOc1c(C(C)n2nc(C)c3c(N)ncnc32)cc(Cl)c(C#N)c1-c1ccc(C(=O)N(C)C)nc1` (centres undefined) the value was at most 10 nM; for `CCOc1c(C(C)n2ccc(=O)c3c(N)ncnc32)cc(Cl)c(C)c1C1CN(C(C)C)C1` (centres undefined), at most 10 nM.
The same measure for `COc1c(C(C)n2nc(C(F)F)c3c(N)ncnc32)cc(C#N)c(C)c1C1CN(CC(C)(C)O)C1` (centres undefined): at most 10 nM; for `COc1c(C(C)n2nc(C)c3c(N)ncnc32)cc(Cl)c(C)c1-c1cncc(C(=O)N2CCC(O)CC2)c1` (centres undefined): at most 10 nM.
The same measure for `COc1c(C(C)n2nc(C)c3c(N)ncnc32)cc(Cl)c(C)c1-c1ccnc(N(C)C)c1` (centres undefined): at most 10 nM; for `CCOc1c(C(C)n2nc(C)c3c(N)ncnc32)cc(Cl)c(F)c1C1CN(C(C)C)C1` (centres undefined): at most 10 nM; for `CCOc1c(C(C)n2nc(C)c3c(N)ncnc32)cc(Cl)c(C)c1C1CN(CCO)C1` (centres undefined): at most 10 nM.
As for `CCOc1c(C(C)n2cc(C)c3c(N)ncnc32)cc(Cl)c(C#N)c1C1CN(C(C)C)C1` (centres undefined), the concentration for half-maximal inhibition (IC50) is at most 10 nM.
For `COc1c(C(C)n2nc(C)c3c(N)ncnc32)cc(Cl)c(C)c1C1CN(CC(O)C(F)(F)F)C1` (centres undefined) the value was at most 10 nM; for `CCNC(=O)c1c(C)c(Cl)cc(C(C)n2nc(-c3cn[nH]c3)c3c(N)ncnc32)c1OCC` (centres undefined), at most 10 nM; for `COc1c(C(C)n2nc(C)c3c(N)ncnc32)cc(Cl)c(C)c1C1CN(C(=O)[C@@H](C)O)C1` (some centres undefined), at most 10 nM.
The same measure for `CCOc1c(C(C)n2nc(C)c3c(N)ncnc32)cc(Cl)c(F)c1C1CN(CC(C)(C)O)C1` (centres undefined): at most 10 nM; for `COc1c(C(C)n2nc(C)c3c(N)ncnc32)cc(Cl)c(C)c1C1CN(CC(C)(C)O)C1` (centres undefined): at most 10 nM.

The values are drawn from the Kinase Knowledgebase extract (Sharma et al. 2016).
